Results published in patent US20080249092A1, “Novel Quinoline Compounds Capable Of Binding At The Cb2 Receptor” (priority 2006, published 2008).
Where a name gives a salt, the structure may show the parent alone.

target: T1, human cannabinoid CB2 receptor (Homo sapiens, UniProt P34972); assay: Cannabinoid CB2 receptor agonist activity in yeast cells (FDGlu fluorescence); assay type: cell-based; conditions: not given
T1 construct: expressed in transfected cells; host or cells: Saccharomyces cerevisiae strain MMY23 (cassette integrated at the ura3 locus, GPD promoter)
T1 sequence (P34972 whole entry): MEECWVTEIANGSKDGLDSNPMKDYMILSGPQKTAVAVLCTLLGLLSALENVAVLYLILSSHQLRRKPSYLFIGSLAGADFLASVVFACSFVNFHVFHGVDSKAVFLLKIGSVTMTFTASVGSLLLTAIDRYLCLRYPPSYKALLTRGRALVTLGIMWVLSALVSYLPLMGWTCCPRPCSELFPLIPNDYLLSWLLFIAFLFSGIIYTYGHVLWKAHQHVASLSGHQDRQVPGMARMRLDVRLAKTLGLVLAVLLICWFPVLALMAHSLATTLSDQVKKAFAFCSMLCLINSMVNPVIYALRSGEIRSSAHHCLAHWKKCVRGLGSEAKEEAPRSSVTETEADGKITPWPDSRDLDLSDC
Experimental: The cannabinoid CB2 receptor agonist activity of compounds of formula (I) was determined in accordance with the following experimental method.
Yeast (Saccharomyces cerevisiae) cells expressing the human cannabinoid CB2 receptor were generated by integration of an expression cassette into the ura3 chromosomal locus of yeast strain MMY23. This cassette consisted of DNA sequence encoding the human CB2 receptor flanked by the yeast GPD promoter to the 5′ end of CB2 and a yeast transcriptional terminator sequence to the 3′ end of CB2. MMY23 expresses a yeast/mammalian chimeric G-protein alpha subunit in which the C-terminal 5 amino acids of Gpa1 are replaced with the C-terminal 5 amino acids of human Gαi1/23 (as described in Brown et al. (2000), Yeast 16:11-22). Cells were grown at 30° C. in liquid Synthetic Complete (SC) yeast media (Guthrie and Fink (1991), Methods in Enzymology, Vol. 194) lacking uracil, tryptophan, adenine and leucine to late logarithmic phase (approximately 6 OD600/ml).
Agonists were prepared as 10 mM solutions in DMSO. EC50 values (the concentration required to produce 50% maximal response) were estimated using 4 fold dilutions of between 3- and 5-fold (BiomekFX, Beckman) into DMSO. Agonist solutions in DMSO (1% final assay volume) were transferred into black microtitre plates from NUNC Greiner (384-well). Cells were suspended at a density of 0.2 OD600/ml in SC media lacking histidine, uracil, tryptophan, adenine and leucine and supplemented with 10 mM 3-aminotriazole, 0.1 M sodium phosphate pH 7.0, and 120 μM fluorescein di-β-D-glucopyranoside (FDGlu). This mixture (50 ul per well) was added to agonist in the assay plates (Multidrop 384, Labsystems). After incubation at 30° C. for 24 hours, fluorescence resulting from degradation of FDGlu to fluorescein due to exoglucanase, an endogenous yeast enzyme produced during agonist-stimulated cell growth, was determined using a fluorescence microtitre plate reader (Tecan Spectrofluor or LJL Analyst excitation wavelength: 485 nm; emission wavelength: 535 nm). Fluorescence was plotted against compound concentration and iteratively curve fitted using a four parameter fit to generate a concentration effect value.
Efficacy (Emax) was calculated from the equation
Emax=Max[compound X]−Min[compound X]/Max[HU210]−Min[HU210]×100%
where Max[compound X] and Min[compound X] are the fitted maximum and minimum respectively from the concentration effect curve for compound X, and Max[HU210] and Min[HU210] are the fitted maximum and minimum respectively from the concentration effect curve for (6aR, 10aR)-3-(1,1′-Dimethylheptyl)-6a,7,10,10a-tetrahydro-1-hydroxy-6,6-dimethyl-6H-dibenzo[b,d]pyran-9-methanol (HU210; available from Tocris). Equieffective molar ratio (EMR) values were calculated from the equation
Where EC50 [compound X] is the EC50 of compound X and EC50 [HU210] is the EC50 of HU210.
pEC50 is the negative log of the EC50.

| SMILES | EC50 [nM] |
| --- | --- |
| O=S(=O)(c1ccc(Cl)cc1)c1cnc2c(NCC3CCOCC3)cccc2c1 [Example E3, 3-[(4-Chlorophenyl)sulfonyl]-N-(tetrahydro-2H-pyran-4-ylmethyl)-8-quinolinamine] | < 1000 |

same assay, conditions: agonist activity; Saccharomyces cerevisiae cells expressing the human CB2 receptor; 24 hours at 30° C.; read-out: pEC50 at the CB2 receptor (converted)

| SMILES | EC50 [nM] |
| --- | --- |
| O=S(=O)(c1ccccc1)c1cnc2c(NCCC3CCOCC3)cccc2c1 [Example E6, 3-(Phenylsulfonyl)-N-[2-(tetrahydro-2H-pyran-4-yl)ethyl]-8-quinolinamine hydrochloride] | < 1000 |
| Cc1cc(CCNc2cccc3cc(S(=O)(=O)c4ccccc4)cnc23)ccn1 [Example E7, N-[2-(2-methyl-4-pyridinyl)ethyl]-3-(phenylsulfonyl)-8-quinolinamine hydrochloride] | < 1000 |
| O=S(=O)(c1ccccc1)c1cnc2c(NCCN3CCOCC3)cccc2c1 [Example E2, N-[2-(4-Morpholinyl)ethyl]-3-(phenylsulfonyl)-8-quinolinamine hydrochloride] | < 10000 |
| O=S(=O)(c1ccccc1)c1cnc2c(NCC3CCOCC3)cccc2c1 [Example E1, 3-(Phenylsulfonyl)-N-(tetrahydro-2H-pyran-4-ylmethyl)-8-quinolinamine] | < 1000 |
| O=S(=O)(c1ccccc1)c1cnc2c(NCc3cccnc3)cccc2c1 [Example E4, 3-(Phenylsulfonyl)-N-(3-pyridinylmethyl)-8-quinolinamine] | < 1000 |
| O=S(=O)(c1ccccc1)c1cnc2c(NCCc3ccncc3)cccc2c1 [Example E5, 3-(Phenylsulfonyl)-N-[2-(4-pyridinyl)ethyl]-8-quinolinamine hydrochloride] | < 1000 |
